Laboratory results from US8207206B2, “(S,R)-3-phenyl-4,5 dihydro-5-isoxazole acetic acid-nitric oxide and use thereof as anti-cancer and antiviral agent” (OncoNOx APS, priority 2007, dated 2012).

Tests used:
C6 cells [1] = experiment: CFSE staining, tumor cell proliferation rate (flow cytometry); type: cell-based, rat; details: C6, GIT27-NO 25 μg/ml, after 48 h; control 8.37%
Method: (§1) The cells were seeded in flat-bottom 96-well plates (10^4 cells/well) in a final volume of 200 μl of culture medium, incubated overnight, then treated with different concentrations of the test compound. After 24 h incubation, cell viability was assessed using 3-4,5-dimethylthiazol-2-yl)-2,5-diphenyltetrazolium bromide (MTT) test, based on the mitochondrial-dependent reduction of MTT to formazan, or by crystal violet (CV) staining of adherent cells, as previously described (Mijatovic et al CMLS 2004). The results are presented as % of control values obtained in untreated cultures. The rate of cell proliferation was also determined using flow cytometric analysis of cells labeled with CFSE (Kang 2005). The cells were detached, added with 1.5 μM CFSE and allowed to stand for 15 min at 37° C., then washed twice and seeded in 6-well plates at 2×10^5. The cells were treated with the compound for 24 and 48 h, trypsinized and washed twice. Finally, the cells were resuspended in PBS and analyzed by flow cytometry. Green fluorescence emission from cells illuminated with excitation light of 488 nm was measured with a FACS Calibur (BD, Heidelberg, Germany) and analyzed using the CellQuest software.

B16 cells [2] = experiment: as above; type: cell-based, mouse; details: B16, GIT27-NO 25 μg/ml, after 48 h; control 2.00%
Method: as §1

L929 cells [3] = experiment: as above; type: cell-based, mouse; details: L929, GIT27-NO 25 μg/ml, after 48 h; control 7.26%
Method: as §1

C6 cells [4] = experiment: Cell cycle analysis and apoptosis detection (PI staining, flow cytometry); type: cell-based, rat; details: C6, 25 μg/ml, 24 h
Method: (§2) As a marker of necrotic cell death, the release of intracellular enzyme LDH, which mediates the conversion 2,4-dinitrophenylhydrazine into visible hydrazone precipitate in the presence of pyruvate, was measured. The cells were seeded in flat-bottom 96-well plates as indicated above and the assay was performed after 24 h incubation, as previously described (Decker et al). The percentage of dead cells was determined using the following formula: [(E−C)/(T−C)]×100, wherein E is the experimental absorbance of treated cultures measured at 492 nm, C is the absorbance of supernatants of control untreated cells, and T is the absorbance corresponding to the maximal (100%) LDH release of Triton-lysed cells. Cell cycle analysis and apoptosis detection were carried out exactly as described in the literature (Mijatovic CMLS 2005). Acidic vesicular organelles, which characterise autophagy, are stained by vital dye acridin orange. The intensity of red fluorescence is proportional to the acidity and volume of the organelles, while the cytoplasm and nucleolus emits bright green and dim red (Kanzawa 2004). […] Green (510-530 nm) and red (>650 nm) fluorescence emission from 10^4 cells illuminated with blue (488 nm) excitation light was measured with a FACS Calibur and analyzed using CellQuest software.

C6 cells [5] = experiment: Autophagy detection by acridin orange staining (flow cytometry); type: cell-based, rat; details: C6, 25 μg/ml, 24 h
Method: as §2

B16 cells [6] = experiment: as above; type: cell-based, mouse; details: B16, 25 μg/ml, 24 h
Method: as §2

C6 cells [7] = experiment: ROS measurement by DHR fluorescence (flow cytometry); type: cell-based, rat; details: C6, 25 μg/ml, 24 h
Method: (§3) The cells grown in the 6-well plate were stained with 1 μM dihydrorhodamine 123 (DHR) 20 min before the treatment with the test compound. At the end of the cultivation period the cells were detached, washed and resuspended in PBS. Analysis of ROS release was performed with a FACSCalibur and analyzed using CellQuest Pro software (Kaludjerovic 2005).

B16 cells [8] = experiment: as above; type: cell-based, mouse; details: B16, 25 μg/ml, 24 h
Method: as §3

L929 cells [9] = experiment: as above; type: cell-based, mouse; details: L929, 25 μg/ml, 24 h
Method: as §3

With `N#Cc1c(COC(=O)CC2CC(c3ccccc3)=NO2)no[n+]1[O-]` (racemic) [GIT27-NO, (S,R)-3-phenyl-4,5 dihydro-5-isoxazole acetic acid-nitric oxide] the “CFSE R1 = parent population” value (C6 cells [1]) was 42.53%, the “CFSE R1 = parent population” value (B16 cells [2]) was 6.90% and the “CFSE R1 = parent population” value (L929 cells [3]) was 13.23%. For the same molecule, the cell cycle effect (C6 cells [4]) was “cell cycle arrest in G0/G1 phase”, the “percentage of cells in subG compartment (hypodiploid cells)” value (C6 cells [4]) was < 10% and the “acidic autophagic vesicles (red fluorescence of acridin orange)” value (C6 cells [5]) was “significantly increased the intensity of bright red fluorescence”. The “acidic autophagic vesicles (red fluorescence of acridin orange)” value (B16 cells [6]) was “significantly increased the intensity of bright red fluorescence”, the “intracellular production of ROS (DHR fluorescence)” value (from here on “intracellular production of ROS”) (C6 cells [7]) was “markedly increased” and the “intracellular production of ROS” value (B16 cells [8]) was “markedly increased”. For the same molecule, the “intracellular production of ROS” value (L929 cells [9]) was “markedly increased”.
